Results published in patent US4599331A, “Etianic acids as antiangiogenics” (Syntex (U.S.A.) Inc., priority 1984, dated 1986).
Where “and” joins values, the source holds several entries; their conditions need not be identical. Identical values can stand only once.

Legend:
glucocorticoid receptor = biological target: T1, glucocorticoid receptor (Mus musculus, UniProt P06537); test: competition for 3H-dexamethasone binding sites in LE II cytosol (glucocorticoid receptor affinity); conditions: Table 1; displacement of 25 nM 3H-DEX, LE II (mouse lung capillary endothelial) cytosol, 3 hours on ice; read-out: IC50 Binding LEII
T1 construct: endogenous in cells; host or cells: LE II (mouse lung capillary endothelial) cells, 100,000 x g cytosol
T1 sequence (P06537 1-792): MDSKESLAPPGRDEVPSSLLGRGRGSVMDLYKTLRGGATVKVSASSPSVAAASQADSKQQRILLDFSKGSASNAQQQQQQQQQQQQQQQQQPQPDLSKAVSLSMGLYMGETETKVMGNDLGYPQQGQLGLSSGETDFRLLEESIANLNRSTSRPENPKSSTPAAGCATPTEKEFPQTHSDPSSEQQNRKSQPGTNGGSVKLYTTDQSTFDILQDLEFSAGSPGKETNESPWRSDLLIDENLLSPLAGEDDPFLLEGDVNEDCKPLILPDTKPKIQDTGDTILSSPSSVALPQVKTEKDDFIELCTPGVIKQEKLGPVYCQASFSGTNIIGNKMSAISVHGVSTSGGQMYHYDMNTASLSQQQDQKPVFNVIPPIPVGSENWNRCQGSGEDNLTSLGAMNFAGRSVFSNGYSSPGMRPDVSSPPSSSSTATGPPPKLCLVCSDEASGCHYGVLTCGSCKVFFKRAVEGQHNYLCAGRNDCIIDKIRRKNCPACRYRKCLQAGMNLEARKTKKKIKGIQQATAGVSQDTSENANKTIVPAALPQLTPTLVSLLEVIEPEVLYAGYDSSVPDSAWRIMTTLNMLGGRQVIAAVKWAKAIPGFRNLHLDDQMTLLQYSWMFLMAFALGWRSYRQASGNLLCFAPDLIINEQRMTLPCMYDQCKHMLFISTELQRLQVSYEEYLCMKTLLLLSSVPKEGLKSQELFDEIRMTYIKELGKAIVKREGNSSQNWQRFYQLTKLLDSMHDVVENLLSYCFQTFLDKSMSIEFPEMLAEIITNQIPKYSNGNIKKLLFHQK
Procedure: LE II (mouse lung capillary endothelial) or HTC (rat hepatoma) cells were grown in Dulbecco's modified Eagle's (DMEM) medium plus 10% fetal calf serum (FCS), in 150 cm^2 T-flasks. Approximately 20 flasks of LE II cells or 10 flasks of HTC cells were needed for a 60-80 sample assay.
Cell monolayers were washed 3 times with Phosphate Buffered Saline (PBS) and harvested by scraping with a rubber policeman into an ice-cold sonication buffer of 0.25M sucrose; 10 mM Tris-HCl, pH 7.4; 5 mM ethylenediaminetetraacetic acid (EDTA); 5 mM dithiothereitol; and 10 mM sodium molybdate. All subsequent steps were performed at 4° C. The cells were pooled into a final volume of 8-12 mls, broken by sonication for 45 seconds with the microtip of a Branson sonifier at setting #3 and the residue was then centrifuged at 100,000 X g for 30 minutes with a Beckman L8-50, Ti50 rotor, at 40,000 rpm. […] Incubations were peformed in a final volume of 1 ml in 1.5 ml Eppendorf centrifuge tubes for 3 hours on ice.
Fine Sephadex G-50 gel was swollen and equilibrated against column buffer of 100 mM Tris-HCl, pH 7.8; and 3 mM CaCl2. Columns were poured to a final packed volume of 4.5 ml in 5 ml plastic disposable pipets.
The packed columns were then drained of buffer and the 1 ml incubated samples were applied to each. The samples were washed into the columns with 0.5 ml of column buffer, and the exclusion volumes containing the protein peaks were eluted with another 1 ml of column buffer and collected. Aliquots of 750 μl of Biorad protein reagent were diluted 1:5 in H2 O. OD630 nm reading were compared with those obtained for a bovine serum albumin standard curve.

[1] = system: Hamster Melanoma RPM1 1846 tumor cells; test: hamster cheek pouch (HCP) angiogenesis inhibition, 1846 tumor cell stimulus; format: in vivo, Male Syrian Golden hamsters; conditions: Table 1; 3×10^5 tumor cells; between 0.5 and 4 mg/kg s.c. daily; each number independent result, average of six animals
Procedure: Each compound of the series was also tested for anti-angiogenic activity by an in vivo test that measured vascularization in a hamster's cheek pouch in response to either an angiogenic polypeptide growth factor, epidermal growth factor (EGF) or an induced […].
(§1) In this example, the in vivo angiogenesis inhibition activity of etianic acid esters was tested. Male Syrian Golden hamsters, weighing between 120 g and 150 g were anaesthetized by intraperitoneal (I.P.) injection of a rodent anaesthetic mixture consisting of 50 mg/kg ketamine hydrochloride, 5 mg/kg xylazine and 1 mg/kg acepromazine. The left cheek pouch of each animal was everted with a pincet and pinned down to a plexiglass-rubber stage and observed through a Zeiss stereomicroscope. 10 μg of EGF or 3×10^5 Hamster Melanoma RPM1 1846 tumor cells in 10 μl Cibachrome Blue agarose (Amicon) were injected subcutaneously in the left lower quadrant of the pouch with a Hamilton syringe.
(§2) The pouch was then reinserted and animals were kept under observation until recovered from anaesthesia.
The animals were dosed daily with one test compound, starting one day before stimulus injection and continuing until observation. The test compounds were dissolved in a minimum volume of ethanol and diluted in sterile phosphate buffer solution. […]
(§3) Either five days or twelve days after the EGF or tumor cell injection, animals were anaesthetized by I.P. injection of the rodent anaesthetic mixture. The pouch was everted on the stage and examined under the stereomicroscope. Pictures were taken with a 35 mm using Kodak Tungsten 50 professional films.
(§4) The following subjective scoring was used for evaluating the photographs:
(§5) 1: minimal branching of vessels in the vicinity of injection site.
(§6) 2: new vessels reach injection site, area involved is minimal (<50% of area surrounding injection site).
(§7) 3: many vessels reach and cross injection site, new vessels are tortuous, (>50% of area surrounding injection site).
(§8) 4: "full blown", many tortuous vessels, leakages, hemorrhages, 100% of area around injection site, invasion of new vessels into non-injected areas.
(§9) In the case of the tumor, tumor size was also determined. (See Table 4)
(§10) Results are expressed as the mean of the score. The results are shown in Tables 1 and 2 are percent inhibition of HCP Stimulus.

[2] = system: Hamster Melanoma RPM1 1846 tumor cells; test: Inhibition of tumor growth (2 week assay); format: in vivo, Male Syrian Golden hamsters; conditions: Table 3, dose 0.8 mg/kg
Procedure: as §1, §2
The animals were dosed daily with one test compound, starting one day before stimulus injection and continuing until observation. The test compounds were dissolved in a minimum volume of ethanol and diluted in sterile phosphate buffer solution. Then between 0.5 and 4 mg/kg of the test compound was injected subcutaneously.
as §3, §4, §5, §6, §7, §8, §9, §10

## CCC(=O)O[C@]1(C(=O)OC)[C@@H](C)C[C@H]2[C@@H]3CCC4=CC(=O)C=C[C@]4(C)[C@@]3(F)[C@@H](O)C[C@@]21C [compound 1]
Glucocorticoid receptor
  IC50: 2 nM
[1]
  % Inhibition HCP Stimulus 1846: 40%

## CCC(=O)O[C@]1(C(=O)OC)[C@@H](C)C[C@H]2[C@@H]3CC(F)C4=C(F)C(=O)C=C[C@]4(C)[C@@]3(F)[C@@H](O)C[C@@]21C (stereo partly drawn) [compound 3]
Glucocorticoid receptor
  IC50: 15 nM
[1]
  % Inhibition HCP Stimulus 1846: 70%

## CCCC(=O)O[C@]1(C(=O)OC)[C@@H](C)C[C@H]2[C@@H]3CC(F)C4=CC(=O)C=C[C@]4(C)[C@@]3(F)[C@@H](O)C[C@@]21C (stereo partly drawn) [compound 4]
Glucocorticoid receptor
  IC50: 0.25 nM
[1]
  % Inhibition HCP Stimulus 1846: 26%

## CCC(=O)O[C@]1(C(=O)OC)[C@H](C)C[C@H]2[C@@H]3CC(F)C4=CC(=O)C=C[C@]4(C)[C@@]3(F)[C@@H](O)C[C@@]21C (stereo partly drawn) [compound 7]
Glucocorticoid receptor
  IC50: 0.25 nM

## CCC(=O)O[C@]1(C(=O)OC)[C@H](C)C[C@H]2[C@@H]3CC(F)C4=C(F)C(=O)C=C[C@]4(C)[C@@]3(F)[C@@H](O)C[C@@]21C (stereo partly drawn) [compound 8]
Glucocorticoid receptor
  IC50: 0.25 nM
[1]
  % Inhibition HCP Stimulus 1846: 41% and 58% and 75%

## CCCC(=O)O[C@]1(C(=O)OC)[C@H](C)C[C@H]2[C@@H]3CC(F)C4=CC(=O)C=C[C@]4(C)[C@@]3(F)[C@@H](O)C[C@@]21C (stereo partly drawn) [compound 9]
[2]
  Angiogenesis % Inh.: 29%
  Tumor area % (inhibition of tumor growth): 86%
[2]; mean of score 0 (no new vessels) to 4 (full blown), untreated 3.1 [A], 2.9 [B]
  Angiogenesis score: 2.2
[2]; untreated 40.7 ± 16.2 [A], 27.5 ± 15.3 [B]
  Tumor area Mn (mm^2): 5.7 ± 5.9 mm^2
Glucocorticoid receptor
  IC50: 0.025 nM
[1]
  % Inhibition HCP Stimulus 1846: 32%
